Patent US20140315234A1, “METHOD TO GENERATE DOPAMINERGIC NEURONS FROM MOUSE AND HUMAN CELLS” (priority 2010, published 2014)
Where two headings read alike, the source gives them in different places.

Assays:
[1] = test system: K+ currents; experiment: Pharmacological suppression of K+ currents in human iDAN cells; type: cell-based
Method: (§1) Recordings were performed on reprogrammed mouse and human fibroblasts and primary mesencephalic DA neurons. […] Only cells without signs of detachment from the substrate were used for recordings. Cells were perfused continuously with HEPES-buffered saline (HBS) of the following composition (in mM): 140 NaCl, 5 KCl, 2 CaCl2, 2 MgCl2, 15 HEPES, and 25 glucose, pH 7.4. The patch pipette solution contained (in mM): 130 K-gluconate, 10 KCl, 0.5 CaCl2, 15 HEPES, 5 EGTA, 8 NaCl, 2 MgATP, 0.3 Na2GTP, and 10 glucose, pH adjusted to 7.2 with KOH. Action potentials were recorded in the on-cell and the current-clamp whole-cell configuration. A current was injected to have membrane potentials around −60 mV, and step currents from −50 pA to 40 pA were injected to elicit action potentials. Na^+ currents and composite K^+ currents were recorded in the voltage-clamp configuration by delivering voltage steps ranging from −100 mV to +20 mV in cells held at −60 mV. Delayed rectifier K+ currents were activated by 0.5 s voltage steps from −40 mV to +20 mV after a 0.5 s-long step to −40 mV.

[2] = test system: K+ channel; type: cell-based, mouse
[3] = test system: Na+ currents; type: cell-based, human
[4] = test system: Na+ voltage-gated channels; type: cell-based, mouse
[5] = test system: D2/D3 receptor; type: cell-based, mouse
Method: as §1

**Q.** With `Nc1ccncc1` [4-AP, 4-aminopyridine] as the compound, how does the “effect on K+ currents and action potentials” value [1] read?
**A.** Suppression

**Q.** What about the “effect on outward K+ currents” value ([2]; 4-AP 3 mM, TEA 10 mM, in the presence of TTX, n=4) of the same compound?
**A.** inhibition of outward currents

**Q.** For `CC[N+](CC)(CC)CC` [TEA, tetraethylammonium], which “effect on outward K+ currents” value [2] is on record?
**A.** inhibition of outward currents

**Q.** With `NC1=N[C@H](O)[C@H]2[C@H]3O[C@]4(O)O[C@@H]([C@@H](O)[C@@]2(N1)[C@@H]4O)[C@]3(O)CO` [TTX, tetrodotoxin] as the compound, how does the “effect on Na+ currents and action potentials” value [3] read?
**A.** Suppression

**Q.** What about the “block of the fast inward current” value [4] of the same compound?
**A.** complete block

**Q.** `CCCN1CCC[C@@H]2Cc3n[nH]cc3C[C@H]21` [quinpirole] was tested. Which “effect on neuronal firing” value [5] did it give?
**A.** drastically suppressed neuronal firing in 6 of 10 recorded cells
